Test results taken from patent US20060025326A1, “Method for treating carrier particles and its use” (LAB Pharma Oy, priority 2002, published 2006).

Assay: Microcalorimetric study of amorphous material
Format: physicochemical
Details: microcalorimetric study / detected in this work

amorphous (unstable) material: some amorphous material
SMILES: CC(C)(C)NCC(O)c1ccc(O)c(CO)c1 (stereo not shown) [salbutamol]
